The values that follow come from ChEMBL document CHEMBL1156904, “Part II: piperazinyl-glutamate-pyridines as potent orally bioavailable P2Y12 antagonists for inhibition of platelet aggregation” (Bioorg Med Chem Lett, 2010).

A word on the IC50: it is the midpoint of a concentration-inhibition curve. Broadly, the Ki is the equilibrium dissociation constant of an inhibitor or competing ligand from its target. A high value points to lower affinity.

A short description of data set [1]: Metabolic stability in rat microsomes. The data set is classed as ADME, Microsome.
Data set [2] is described as follows: Metabolic stability in human microsomes. The data set is classed as ADME, Microsome.
Data set [3] can be described thus: Antiplatelet activity in human platelet rich plasma assessed as inhibition of ADP-induced platelet aggregation relative to AZD-6140. The data set is classed as functional.
The nature of data set [4]: Antiplatelet activity in human platelet rich plasma assessed as inhibition of ADP-induced platelet aggregation. It is filed as functional.
Another data set deals with P2Y purinoceptor 12 (Homo sapiens, UniProt Q9H244). Briefly: Inhibition of human P2Y12 receptor expressed in CHO cells.
P2Y purinoceptor 12, sequence (Q9H244 whole entry): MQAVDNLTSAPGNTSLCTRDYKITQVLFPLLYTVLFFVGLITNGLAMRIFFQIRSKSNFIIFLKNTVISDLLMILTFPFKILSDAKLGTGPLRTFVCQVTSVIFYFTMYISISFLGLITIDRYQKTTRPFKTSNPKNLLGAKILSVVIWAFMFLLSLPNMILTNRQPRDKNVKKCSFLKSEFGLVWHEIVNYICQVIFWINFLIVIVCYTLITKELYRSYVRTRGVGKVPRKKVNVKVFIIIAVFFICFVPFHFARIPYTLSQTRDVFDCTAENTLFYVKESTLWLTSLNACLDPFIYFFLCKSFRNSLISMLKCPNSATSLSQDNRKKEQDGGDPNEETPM

`CCCCCOC(=O)N1CCN(C(=O)[C@H](CCC(=O)O)NC(=O)c2cc(N3CCN(CCO)CC3)cc(-c3ccccc3)n2)CC1`: the Stability entry in data set [1] and in data set [2] was “Stable” each time. In addition, the “fold change (FC)” value in data set [3] is on record as 1.1. Further, the IC50 in data set [4] came out at 1.8 µM. The Ki at P2Y purinoceptor 12 amounted to 0.013 µM.

For the molecule `CCCCCOC(=O)N1CCN(C(=O)[C@H](CCC(=O)O)NC(=O)c2cc(N3CC[C@@H](C(=O)N4CCCC4)C3)cc(-c3ccccc3)n2)CC1`, the Stability result in data set [1] and in data set [2] was “Stable” in each case. In addition, the “fold change (FC)” value in data set [3] came out at 1.7. For the same molecule, in data set [4], the IC50 was determined as 2.2 µM. On P2Y purinoceptor 12, this molecule registered a Ki of 0.0014 µM.

For `CCCCCOC(=O)N1CCN(C(=O)[C@H](CCC(=O)O)NC(=O)c2cc(N3CC(O)C3)cc(-c3ccccc3)n2)CC1`, the Stability result in data set [1] and in data set [2] was “Stable” each time. Besides, the “fold change (FC)” value in data set [3] is recorded as 9.2. The IC50 in data set [4] came to 8.6 µM. Also, on P2Y purinoceptor 12, the Ki is 0.0025 µM.

Take `CCCCOC(=O)N1CCN(C(=O)[C@H](CCC(=O)O)NC(=O)c2cc(N3CCC(CN4CCCC4=O)CC3)cc(-c3ccccc3)n2)CC1`: the Stability entry in data set [1] and in data set [2] was “Stable” in each case. Further, the “fold change (FC)” value in data set [3] was 1.5. Besides, the IC50 in data set [4] is 1.1 µM. Besides, at P2Y purinoceptor 12, the affinity corresponds to a Ki of 0.00079 µM.

As for `CCCCOC(=O)N1CCN(C(=O)[C@H](CCC(=O)O)NC(=O)c2cc(N3CCC(CNC)CC3)cc(-c3ccccc3)n2)CC1`, the Stability entry in data set [1] and in data set [2] was “Stable” each time. The “fold change (FC)” value in data set [3] amounted to 1. The IC50 in data set [4] was determined as 0.91 µM. The same molecule yielded a Ki on P2Y purinoceptor 12 of 0.004 µM.

Take `CCCCCOC(=O)N1CCN(C(=O)C(CCC(=O)O)NC(=O)c2cc(N3CCC(CO)C3)cc(-c3ccccc3)n2)CC1` (mixture of isomers): the Stability result in data set [1] and in data set [2] was “Stable” throughout. In addition, the “fold change (FC)” value in data set [3] was 11. For the same molecule, the half-inhibitory concentration (IC50) in data set [4] came to 29 µM. In addition, the Ki at P2Y purinoceptor 12 was determined as 0.021 µM.

For the molecule `CCCCCOC(=O)N1CCN(C(=O)[C@H](CCC(=O)O)NC(=O)c2cc(N3CCC(CN(C)C)CC3)cc(-c3ccccc3)n2)CC1`, the Stability result in data set [1] and in data set [2] was “Stable” in each case. Further, the “fold change (FC)” value in data set [3] was 1.3. For the same molecule, the IC50 in data set [4] was found to be 1 µM. The Ki at P2Y purinoceptor 12 is 0.0019 µM.

For `CCCCOC(=O)N1CCN(C(=O)[C@H](CCC(=O)O)NC(=O)c2cc(N3CCC(CN(C)C)CC3)cc(-c3ccccc3)n2)CC1`, the Stability result in data set [1] and in data set [2] was “Stable” in each case. Also, the “fold change (FC)” value in data set [3] was 1.3. Moreover, the IC50 in data set [4] came to 0.89 µM. The same molecule registered a Ki on P2Y purinoceptor 12 of 0.0032 µM.

Turning to `CCCCCOC(=O)N1CCN(C(=O)[C@H](CCC(=O)O)NC(=O)c2cc(N3CCC(CCN4CCCC4)CC3)cc(-c3ccccc3)n2)CC1`, the Stability result in data set [1] and in data set [2] was “Stable” each time. The “fold change (FC)” value in data set [3] is 0.59. Besides, the IC50 in data set [4] worked out at 0.75 µM. The molecule further displayed a Ki at P2Y purinoceptor 12 of 0.008 µM.

`CCCCCOC(=O)N1CCN(C(=O)[C@H](CCC(=O)O)NC(=O)c2cc(N3CCN(C(N)=O)CC3)cc(-c3ccccc3)n2)CC1`: the Stability result in data set [1] and in data set [2] was “Stable” each time. Besides, the “fold change (FC)” value in data set [3] came to 1.8. Also, the IC50 in data set [4] amounted to 1.9 µM. Moreover, at P2Y purinoceptor 12, affinity was put at a Ki of 0.0063 µM.

With `CCCCCOC(=O)N1CCN(C(=O)[C@H](CCC(=O)O)NC(=O)c2cc(N3CCNCC3)cc(-c3ccccc3)n2)CC1`, the Stability result in data set [1] and in data set [2] was “Stable” throughout. The “fold change (FC)” value in data set [3] stood at 2.3. For the same molecule, the IC50 in data set [4] turned out to be 1.9 µM. This molecule yielded a Ki at P2Y purinoceptor 12 of 0.0065 µM.

Take `CCCCCOC(=O)N1CCN(C(=O)[C@H](CCC(=O)O)NC(=O)c2cc(N3CCN(CCOC)CC3)cc(-c3ccccc3)n2)CC1`: the Stability entry in data set [1] and in data set [2] was “Stable” throughout. In data set [3], the “fold change (FC)” value is 2.1. For the same molecule, the IC50 in data set [4] was determined as 1.1 µM. For the same molecule, at P2Y purinoceptor 12, the Ki is 0.0083 µM.

`CCCCCOC(=O)N1CCN(C(=O)[C@H](CCC(=O)O)NC(=O)c2cc(N3CC(CNC)C3)cc(-c3ccccc3)n2)CC1`: the Stability entry in data set [1] and in data set [2] was “Stable” throughout. In addition, the “fold change (FC)” value in data set [3] came to 1.9. For the same molecule, in data set [4], the concentration for half-maximal inhibition (IC50) came out at 1.3 µM. This molecule yielded a Ki on P2Y purinoceptor 12 of 0.0071 µM.

Consider `CCCCCOC(=O)N1CCN(C(=O)[C@H](CCC(=O)O)NC(=O)c2cc(N3CCN(C(=O)C(C)C)CC3)cc(-c3ccccc3)n2)CC1`, for which the Stability result in data set [1] and in data set [2] was “Stable” in each case. The “fold change (FC)” value in data set [3] is recorded as 6.6. In addition, in data set [4], the IC50 amounted to 5 µM. Also, at P2Y purinoceptor 12, the Ki was found to be 0.016 µM.

On to `CCCCOC(=O)N1CCN(C(=O)[C@H](CCC(=O)O)NC(=O)c2cc(N3CCC(C(=O)NC(C)C)CC3)cc(-c3ccccc3)n2)CC1`, for which the Stability entry in data set [1] and in data set [2] was “Stable” throughout. For the same molecule, the “fold change (FC)” value in data set [3] is given as 0.82. The IC50 in data set [4] was found to be 0.62 µM. The same molecule returned a Ki at P2Y purinoceptor 12 of 0.0043 µM.

For the molecule `CCCCCOC(=O)N1CCN(C(=O)[C@H](CCC(=O)O)NC(=O)c2cc(N3CCC(CN4CCCC4)CC3)cc(-c3ccccc3)n2)CC1`, the Stability result in data set [1] and in data set [2] was “Stable” each time. The “fold change (FC)” value in data set [3] was 0.93. Further, the IC50 in data set [4] worked out at 0.74 µM. This molecule also showed a Ki on P2Y purinoceptor 12 of 0.0011 µM.

On to `CCCCCOC(=O)N1CCN(C(=O)[C@H](CCC(=O)O)NC(=O)c2cc(N3CCCC(CN4CCCC4=O)C3)cc(-c3ccccc3)n2)CC1` (stereo not given in full), for which the Stability entry in data set [1] and in data set [2] was “Stable” in each case. The “fold change (FC)” value in data set [3] worked out at 3.8. Also, in data set [4], the IC50 worked out at 2.6 µM. The Ki on P2Y purinoceptor 12 worked out at 0.01 µM.

Consider `CCCCCOC(=O)N1CCN(C(=O)C(CCC(=O)O)NC(=O)c2cc(N3CCC(O)C3)cc(-c3ccccc3)n2)CC1` (mixture of isomers), for which the Stability entry in data set [1] and in data set [2] was “Stable” each time. Besides, in data set [3], the “fold change (FC)” value amounted to 3.9. Also, the IC50 in data set [4] came to 7.1 µM. The molecule also gave a Ki at P2Y purinoceptor 12 of 0.013 µM.

For `CCCCCOC(=O)N1CCN(C(=O)[C@H](CCC(=O)O)NC(=O)c2cc(N3CCC(C(=O)NC(C)C)CC3)cc(-c3ccccc3)n2)CC1`, the Stability result in data set [1] and in data set [2] was “Stable” throughout. For the same molecule, in data set [3], the “fold change (FC)” value was 0.64. For the same molecule, the concentration for half-maximal inhibition (IC50) in data set [4] was 0.75 µM. The same molecule displayed a Ki on P2Y purinoceptor 12 of 0.006 µM.

Regarding `CCCCCOC(=O)N1CCN(C(=O)[C@H](CCC(=O)O)NC(=O)c2cc(N3CCC(C(=O)NC)CC3)cc(-c3ccccc3)n2)CC1`, the Stability entry in data set [1] and in data set [2] was “Stable” in each case. In addition, the “fold change (FC)” value in data set [3] came out at 0.86. Further, the 50% inhibitory concentration (IC50) in data set [4] is 1.6 µM. The affinity at P2Y purinoceptor 12, expressed as Ki, was 0.0079 µM.

For the molecule `CCCCCOC(=O)N1CCN(C(=O)[C@H](CCC(=O)O)NC(=O)c2cc(N3CC[C@H](C(=O)N(CC)CC)C3)cc(-c3ccccc3)n2)CC1`, the Stability entry in data set [1] and in data set [2] was “Stable” throughout. Further, in data set [3], the “fold change (FC)” value is on record as 4.6. In data set [4], the IC50 was found to be 4.8 µM. On P2Y purinoceptor 12, this molecule displayed an inhibition constant Ki of 0.0017 µM.
